From PubChem BioAssay AID1963860 (Molecular Pharmacology Branch, DTP, NCI, 2024)

Test system: CN0375-F725-PDC KRAS spheroid viability
Assay: Anticancer human tumor CN0375-F725-PDC patient-derived colon carcinoma cell line growth inhibition [KRAS2]
Conditions: spheroids with HUVEC and MSC; for viability, T/C: stronger effect = lower value
Outline: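 Combination screen of spheroid viability in tumor-cell co-cultures with endothelial (HUVEC) and mesenchymal stem cell stroma. Each agent was tested in half-log dilutions, topping at clinical Cmax or at 10 microM without a known Cmax.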

[1] = curve of first compound, second compound 0.1 µM
[2] = curve of first compound, second compound 0.316 µM
[3] = curve of first compound, second compound 1 µM
[4] = curve of first compound, second compound 3.16 µM
[5] = curve of first compound, second compound 10 µM
[6] = second compound 0.1 µM, first compound 0.0316 µM
[7] = second compound 0.1 µM, first compound 0.1 µM
[8] = second compound 0.316 µM, first compound 0.0316 µM
[9] = second compound 0.316 µM, first compound 0.1 µM
[10] = second compound 1 µM, first compound 0.0316 µM
[11] = second compound 1 µM, first compound 0.1 µM
[12] = second compound 3.16 µM, first compound 0.0316 µM
[13] = second compound 3.16 µM, first compound 0.1 µM
[14] = second compound 10 µM, first compound 0.0316 µM
[15] = second compound 10 µM, first compound 0.1 µM
[16] = second compound 0.1 µM, first compound 0.000316 µM
[17] = second compound 0.1 µM, first compound 0.001 µM
[18] = second compound 0.1 µM, first compound 0.00316 µM
[19] = second compound 0.1 µM, first compound 0.01 µM
[20] = second compound 0.316 µM, first compound 0.000316 µM
[21] = second compound 0.316 µM, first compound 0.001 µM
[22] = second compound 0.316 µM, first compound 0.00316 µM
[23] = second compound 0.316 µM, first compound 0.01 µM
[24] = second compound 1 µM, first compound 0.000316 µM
[25] = second compound 1 µM, first compound 0.001 µM
[26] = second compound 1 µM, first compound 0.00316 µM
[27] = second compound 1 µM, first compound 0.01 µM
[28] = second compound 3.16 µM, first compound 0.000316 µM
[29] = second compound 3.16 µM, first compound 0.001 µM
[30] = second compound 3.16 µM, first compound 0.00316 µM
[31] = second compound 3.16 µM, first compound 0.01 µM
[32] = second compound 10 µM, first compound 0.000316 µM
[33] = second compound 10 µM, first compound 0.001 µM
[34] = second compound 10 µM, first compound 0.00316 µM
[35] = second compound 10 µM, first compound 0.01 µM
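Also: spheroids exposed to agents for 7 days.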

With `O=C(c1cc(Cc2n[nH]c(=O)c3ccccc23)ccc1F)N1CCN(C(=O)C2CC2)CC1` + C=CC(=O)N1CCN(c2nc(=O)n(-c3c(C)ccnc3C(C)C)c3nc(-c4c(O)cccc4F)c(F)cc23)C(C)C1 the IC50 [1] was > 10000 nM, the IC50 [2] was > 10000 nM and the IC50 [3] was > 10000 nM. For the same compound, the IC50 [4] was > 10000 nM, the IC50 [5] was > 10000 nM and the viability, T/C [6] was 107%. The viability, T/C [7] was 107%, the viability, T/C (second compound 0.1 µM, first compound 0.316 µM) was 99.6% and the viability, T/C (second compound 0.1 µM, first compound 1 µM) was 100%. It also gave a viability, T/C (second compound 0.1 µM, first compound 3.16 µM) of 99.8%, a viability, T/C (second compound 0.1 µM, first compound 10 µM) of 93.9% and a viability, T/C [8] of 109%. The viability, T/C [9] was 102%, the viability, T/C (second compound 0.316 µM, first compound 0.316 µM) was 102% and the viability, T/C (second compound 0.316 µM, first compound 1 µM) was 103%. It also gave a viability, T/C (second compound 0.316 µM, first compound 3.16 µM) of 101%, a viability, T/C (second compound 0.316 µM, first compound 10 µM) of 92.3% and a viability, T/C [10] of 109%. The viability, T/C [11] was 113%, the viability, T/C (second compound 1 µM, first compound 0.316 µM) was 106% and the viability, T/C (second compound 1 µM, first compound 1 µM) was 99.2%. The viability, T/C (second compound 1 µM, first compound 3.16 µM) was 102%, the viability, T/C (second compound 1 µM, first compound 10 µM) was 91.1% and the viability, T/C [12] was 105%. For the same compound, the viability, T/C [13] was 111%, the viability, T/C (second compound 3.16 µM, first compound 0.316 µM) was 106% and the viability, T/C (second compound 3.16 µM, first compound 1 µM) was 99.7%. For the same compound, the viability, T/C (second compound 3.16 µM, first compound 3.16 µM) was 99.6%, the viability, T/C (second compound 3.16 µM, first compound 10 µM) was 97.2% and the viability, T/C [14] was 97.9%. The viability, T/C [15] was 100%, the viability, T/C (second compound 10 µM, first compound 0.316 µM) was 94.2% and the viability, T/C (second compound 10 µM, first compound 1 µM) was 94.5%. For the same compound, the viability, T/C (second compound 10 µM, first compound 3.16 µM) was 96.4% and the viability, T/C (second compound 10 µM, first compound 10 µM) was 85.2%.

In the case of `CN(C)C/C=C/C(=O)Nc1cc2c(Nc3ccc(F)c(Cl)c3)ncnc2cc1O[C@H]1CCOC1` + CC1OCC2(CCN(c3cnc(Sc4ccnc(N)c4Cl)c(N)n3)CC2)C1N, the IC50 [1] is reported as > 100 nM, the IC50 [2] is reported as > 100 nM and the IC50 [3] is reported as > 100 nM. For the same compound, the IC50 [4] was > 100 nM, the IC50 [5] was > 100 nM and the viability, T/C [16] was 95.9%. It also gave a viability, T/C [17] of 87%, a viability, T/C [18] of 87.5% and a viability, T/C [19] of 85.9%. For the same compound, the viability, T/C [6] was 80.4%, the viability, T/C [7] was 80.4% and the viability, T/C [20] was 93.6%. The viability, T/C [21] was 87.7%, the viability, T/C [22] was 84% and the viability, T/C [23] was 86.9%. For the same compound, the viability, T/C [8] was 83.2%, the viability, T/C [9] was 75.7% and the viability, T/C [24] was 94.8%. For the same compound, the viability, T/C [25] was 97.5%, the viability, T/C [26] was 88.3% and the viability, T/C [27] was 85.5%. For the same compound, the viability, T/C [10] was 83.5%, the viability, T/C [11] was 77.7% and the viability, T/C [28] was 73.9%. The viability, T/C [29] was 77.7%, the viability, T/C [30] was 73.7% and the viability, T/C [31] was 71%. For the same compound, the viability, T/C [12] was 71.6%, the viability, T/C [13] was 72.3% and the viability, T/C [32] was 90.3%. For the same compound, the viability, T/C [33] was 96%, the viability, T/C [34] was 88% and the viability, T/C [35] was 84.6%. The viability, T/C [14] was 80.6% and the viability, T/C [15] was 82.8%.

`CC(C)n1nc(-c2ccc3oc(N)nc3c2)c2c(N)ncnc21` + CNCc1ccccc1-c1csc(C(C)Nc2nc(C)nc3cc(OC)c(OC)cc23)c1 was tested, and the IC50 [1] was 58 nM, the IC50 [2] was 54 nM and the IC50 [3] was 1.13 nM. The IC50 [4] was < 0.316 nM, the IC50 [5] was < 0.316 nM and the viability, T/C [16] was 99.7%. The viability, T/C [17] was 93.1%, the viability, T/C [18] was 80% and the viability, T/C [19] was 67%. For the same compound, the viability, T/C [6] was 55.3%, the viability, T/C [7] was 45.4% and the viability, T/C [20] was 91.1%. For the same compound, the viability, T/C [21] was 83.9%, the viability, T/C [22] was 78.5% and the viability, T/C [23] was 67%. The viability, T/C [8] was 55.9%, the viability, T/C [9] was 43.2% and the viability, T/C [24] was 66.2%. For the same compound, the viability, T/C [25] was 49.4%, the viability, T/C [26] was 37.8% and the viability, T/C [27] was 47.7%. It also gave a viability, T/C [10] of 37.9%, a viability, T/C [11] of 29% and a viability, T/C [28] of 0.35%. It also gave a viability, T/C [29] of 0.36%, a viability, T/C [30] of 0.33% and a viability, T/C [31] of 0.28%. For the same compound, the viability, T/C [12] was 0.52%, the viability, T/C [13] was 0.44% and the viability, T/C [32] was 0.13%. It also gave a viability, T/C [33] of 0.17%, a viability, T/C [34] of 0.14% and a viability, T/C [35] of 0.15%. For the same compound, the viability, T/C [14] was 0.18% and the viability, T/C [15] was 0.21%.

`CC(C)NCC(C(=O)N1CCN(c2ncnc3c2C(C)CC3O)CC1)c1ccc(Cl)cc1` (configuration not stated) was tested, and the viability, T/C (compound 0.0316 µM) was 103% [middle of 5 runs], the viability, T/C (compound 0.1 µM) was 102% [middle of 5 runs] and the viability, T/C (compound 0.316 µM) was 96.5% [middle of 5 runs]. For the same compound, the viability, T/C (compound 1 µM) was 93.9% [middle of 5 runs], the viability, T/C (compound 3.16 µM) was 91.8% [middle of 5 runs] and the viability, T/C (compound 10 µM) was 76.8% [middle of 5 runs]. The IC50 (curve of compound) was > 10000 nM.
